Results reported in US11028061B2, “Modulators of myocyte lipid accumulation and insulin resistance and methods of use thereof” (Sanford Burnham Prebys Medical Discovery Institute, priority 2015, dated 2021).

Tests used:
[1] = Intracellular lipolysis rates; format: cell-based; conditions: data not shown
[2] = test system: primary human skeletal myotubes; assay: Fatty acid oxidation (FAO) assay, 3H-palmitate; format: cell-based; conditions: 24 hours
Description: FAO rates were determined for primary human skeletal myotubes with or without SBI-477 using 125 μM [3H]-palmitic acid (Djouadi, et al., Mol Genet Metab. 2003; 78(2):112-118). Primary human skeletal myotubes were grown and differentiated in 24-well plates. Cells were treated with the indicated concentration of SBI-477 for 24 hours. Following compound treatment, cells were rinsed three times with PBS and then incubated in 125 μM [3H]-palmitic acid (60 Ci/mmol) bound to fatty acid free albumin containing 1 mM carnitine for 2 hours at 37° C. The cell medium was transferred to a tube containing cold 10% trichloroacetic acid (TCA). The tubes were centrifuged at 8,500×g for 10 minutes at 4° C. The supernatant was immediately removed, mixed with 6N NaOH, and applied to ion-exchange resin (DOWEX 1; Sigma-Aldrich). The eluate was collected, measured by liquid scintillation analyzer (PerkinElmer) and normalized to total protein amount. The amount of cell protein was measured by Micro BCA protein assay kit (Thermo Scientific).

MGAT1/2/3 = assay: Direct inhibition of MGAT1/2/3 activity; format: biochemical; conditions: data not shown
H9c2 myotubes = assay: Glycogen synthesis in H9c2 myotubes; format: cell-based, Rat
TXNIP = TXNIP protein levels by western blot; format: cell-based; conditions: human myotubes
Description: FIGS. 4A-C show downregulation of TXNIP and ARRDC4 expression by SBI-477. (FIG. 4A) TXNIP and ARRDC4 mRNA levels as determined by quantitative RT-PCR in human myotubes treated with SBI-477 (10 μM) or DGAT1 inhibitor (DGATi, […]) for 24 hours in the absence or presence of 100 μM oleate (n=4). Expression is shown relative to vehicle/BSA treatment. (FIG. 4B) TXNIP gene expression following exposure to a dose range of SBI-477 for 24 hours (n=4). (FIG. 4C) Left, Effect of SBI-477 on TXNIP protein levels as determined by western blot analysis by SBI-477. Right, Quantitation of the TXNIP western blot data is shown (n=5). *p<0.05 vs. Vehicle/BSA control, †p<0.05 vs. Vehicle/oleate by one-way ANOVA with Bonferroni post hoc test. The data are shown as mean±SD.
Cells were lysed in the RIPA buffer containing 1% NP-40, 5 mM Na4P2O7, 1 mM EDTA, 20 mM NaF, 2 mM Na3VO4, 1× cOmplete™ protease inhibitor (Roche) and 1 mM phenylmethylsulfonyl fluoride. Whole cell lysates were subjected to SDS-PAGE and transferred to a nitrocellulose membrane. The blots were hybridized with specific antibodies and developed with enhanced chemiluminescence kit (Pierce). […] Protein quantification was performed using FluorChemQ (Alpha Innotech) and normalized to […]-actin or total protein where indicated.

human TXNIP promoter = assay: TXNIP promoter luciferase reporter assay in H9c2 myocytes; format: cell-based, rat; conditions: 24 hours
Description: Transient transfections were performed using Attractene (Qiagen) according to the manufacturer's protocols. A full length (1.5 kb) and two serial deletion (1.0 kb and 0.5 kb) reporters of the human TXNIP promoter were generously provided by Dr. Fumihiko Urano (Washington University School of Medicine). Mutation of the carbohydrate-responsive elements (ChoREs) of the reporters was generated by QuikChange II Site-Directed Mutagenesis kit (Agilent). H9c2 myoblast cells (ATCC) were cotransfected with 700 ng of the reporter and 25 ng of CMV promoter driven Renilla luciferase as a control for transfection efficiency. Eighteen hours after transfection, the cells were cultured in DMEM supplemented with 1% fetal bovine serum to induce differentiation for 4 days. SBI-477 was added during the last 24 hours at the indicated concentration. After compound incubation, luciferase activity was measured using the Dual-Glo luciferase assay system (Promega) according to the manufacturer's protocols.

Q: With COc1ccc(-c2csc(NC(=O)c3ccc(OCC(=O)N4CCOCC4)c(OC)c3)n2)cc1 [Cpd. 7, 3-methoxy-N-(4-(4-methoxyphenyl)thiazol-2-yl)-4-(2-morpholino-2-oxoethoxy)benzamide] as the molecule, how does the Intracellular lipolysis rates [1] read?
A: not due to blocking cellular fatty acid uptake or increasing intracellular lipolysis rates

Q: What about the FAO rates [2] of the same molecule?
A: increased by SBI-477 in a dose-dependent manner

Q: What about the “Direct inhibition of MGAT1/2/3 activity” value (MGAT1/2/3) of the same molecule?
A: not found that SBI-477 directly inhibits

Q: And the “Insulin-stimulated glycogen synthesis compared to vehicle” value (H9c2 myotubes)?
A: increased insulin-stimulated glycogen synthesis

Q: And the TXNIP protein levels (TXNIP)?
A: reduced by SBI-477 in dose-dependent manner

Q: And the “TXNIP promoter activity (luciferase)” value (human TXNIP promoter)?
A: decreased promoter activity in a dose dependent manner
